Experimental data as given in patent publication US6900238B1, “HIV protease inhibitors” (The Scripps Research Institute, priority 1995, dated 2005).
Read-outs that look alike come from different tables or passages of the source. Peptide text beside a SMILES is read from it. * marks the point of attachment. Cbz = O=C(OCc1ccccc1)*; NHtBu = CC(C)(C)N*

Key:
HIV-1 protease [1] = target: T1, HIV-1 protease (Human immunodeficiency virus type 1 group M subtype B, UniProt P03369); test: HIV protease inhibition, fluorogenic peptide substrate cleavage (IC50 and Ki); assay type: biochemical; details: for IC50: read-out: HIV PR IC50; for Ki: read-out: HIV PR Ki
T1 construct: HIV PR is a 99 amino acid aspartyl protease which functions as a homodimer; made in house; host or cells: no host: total chemical synthesis
Experimental: The solution was mixed and incubated over 5 minutes during which time the rate of substrate cleavage was monitored by continuously recording the change in fluorescence of the assay solution. An excitation filter of 325 nm, and an emission filter of 420 nm were used.
Determination of Ki for HIV protease was performed similarly with the following modifications. The substrate concentrations used were 57, 43, 28 and 14 μM. All other concentrations were as above. The curve fit for the data was determined and the subsequent Ki derived using a computer program based on the equation of Morrison et. al. BioChim. Biophys. ACTA 1969, 185, 269, for tight binding inhibitors.
The synthetic HIV-protease containing a thioester linkage available from CalBiochem (San Diego) can also be used. The enzyme activity was assayed with the fluorogenic substrate Ac-Thr-Ile-Nle-Phe(P—NO2)-Gln-Arg-NH2 (from CalBiochem, San Diego) according to the procedure described in the literature. Inhibition analysis was performed in the presence of the inhibitor and expressed with IC50 (the concentration of inhibitor that causes 50% inhibition of the enzyme activity).

FIV protease = target: T2, FIV protease (Feline immunodeficiency virus, UniProt P16088); test: FIV protease inhibition, peptide substrate cleavage by HPLC (IC50 and Ki); assay type: biochemical
T2 construct: an 18.6 kDa precursor, which auto-processed to a 13.2 kDa FIV PR plus N- and C-terminal fragments; made in house; host or cells: E. coli BL21.DE3, lys S (pT7-7 vector)
Experimental: For determination of K1 and IC50 for FIV protease, 0.125 μg of the enzyme was added to a solution (100 μL final volume) containing inhibitor, 560 μM peptide substrate (sequence Gly-Lys-Glu-Glu-Gly-Pro-Pro-Gln-Ala-Tyr-Pro-Ile-Gln-Thr-Val-Asn-Gly) and 2% dimethyl sulfoxide in a 1:3 mixture of assay buffer (as above) and 4M NaClaq. solution. The solution was mixed and incubated for 10 minutes at 37° C. and the reaction quenched by addition of 8 M guanidine HCl solution containing 0.2 M sodium acetate at pH 4.2 (100 μL). The cleavage products and substrate were separated by reverse phase HPLC. Absorbance was measured at 215 nm, peak areas were determined and percent conversion to product was calculated using relative peak areas. The data were plotted as 1/V (V=rate substrate is cleaved in nmol/min) against inhibitor concentration and the—Ki determined as the point at which the resulting line intersects with 1/Vmax (Vmax=6.85 nmol/min). IC50 was determined as the inhibitor concentration at 50% inhibition. Vmax (6.85±0.7 nmol min^−1) and Km (707±70 μM) for FIV protease were determined from a plot of 1/V (V=rate in nmol/min) against 1/[S] ([S]=substrate concentration in […]). The data used was generated similarly to that for Ki with the following modifications. The substrate concentrations used were 560, 448, 336, 224, 111 and 56 μM, in the absence of inhibitor.
Purification of FIV protease: A 503 base pair Eco Rl-Bam Hl fragment containing the coding sequence of FIV protease was cloned from FIV-34TF10 (Talbott et. al. Proc. Natl. Acad. Sci. USA 86 1989, 5743) into the pT7-7 vector (Tabor et. al. Proc. Natl. Acad. Sci USA 82 1985, 1074). The 5′ end of the insert was modified by the addition of an Ndel adaptor, which provided the proper reading frame with initiation of translation from the methionine encoded in the latter site. […] The construct was transformed into E. coli strain BL21.DE3, lys S (Studier et. al. Meth. Enzymol. 1990, 185, 60) and overnight cultures were used to inoculate 15 liter fermentations, performed using Circlegrow medium (Bio 101) plus […] ampicillin, 20 μM chloramphenicol, at 37° C. The cells were allowed to reach mid-log phase, then the temperature was reduced to 24° C. and IPTG (isopropylB-thiogalactopyranoside) was added to a final concentration of 1 mM. The fermentation was allowed to proceed for 16 hours, at which time the cells were harvested by centrifugation and frozen at −70° C. in 100 g aliquots for future use.
Cells (100 g) were lysed by addition of 600 mL, 50 mM Tris-HCl, pH 8, 5 mM EDTA and 2 mM 2-mercaptoethanol to the frozen pellet. The cells lysed upon thawing and the viscous mixture was homogenized at 4° C. for 2 min in a Waring blender. The sample was centrifuged at 8,000×g for 20 min and the pellet discarded. […]

[2] = 13C NMR study of hydration of the ketone moiety in the presence of water; assay type: physicochemical; details: deuterated DMSO/D2O (5:1), incubation for 24 hours
Text: The ketone moiety of the α-keto amide 2 is disclosed to be hydrated and is hydrogen bonding in a similar manner to that of compound 23.

HIV-1 protease [3] = target: T1, HIV-1 protease; details: known HIV PR inhibitor; cited from earlier work

## CO[C@@H]1C[C@@H](C(=O)NC(C)(C)C)N(C[C@@H](O)[C@H](Cc2ccccc2)NC(=O)OCc2ccccc2)C1 [Compound 10]
HIV-1 protease [1]
  IC50: 2.9 µM

## CC(C)(C)NC(=O)C1CCCN1C(=O)C(Cc1ccccc1)NC(=O)OCc1ccccc1 (stereo not drawn) [Cbz-Phe-Pro-NBu^t] (Cbz-Phe-Pro-NHtBu; configuration not given here)
HIV-1 protease [1]; normal assay conditions
  cleavage by HIV protease: not cleaved
FIV protease; normal assay conditions
  cleavage by FIV protease: not cleaved

## CC(C)(C)NC(=O)[C@@H]1CCCN1C(=O)C(=O)C(Cc1ccccc1)NC(=O)OCc1ccccc1 (mixture of isomers) [Compound 2, (3S) and (3R) 3-(N-Benzyloxycarbonyl)amino-2-keto-4-phenylbutyryl-L-prolyl-tert-butyl Amide]
[2]
  hydration of the ketone moiety in the presence of water: remains unhydrated
HIV-1 protease [1]
  fold better than the corresponding hydroxyethylamine isosteric structure as inhibitor of the HIV protease: approximately 300 fold
  fold better than the corresponding phosphinic acid derivative as inhibitor of the HIV protease: ~1300 fold
  IC50: 0.7 µM
  Ki: 0.214 µM
HIV-1 protease [1]; time dependent assays
  time dependent inhibition of HIV PR: do not exhibit time dependent inhibition
FIV protease; added in concentrations up to 70 mM
  inhibitory effect against FIV PR: no inhibitory effect

## CC(C)(C)NC(=O)[C@@H]1CCCN1C(=O)[C@H](O)[C@H](Cc1ccccc1)NC(=O)OCc1ccccc1 [Compound 23, (2S, 3R) and (2S, 3S) 3-(N-Benzyloxycarbonyl)amino-2-hydroxy-4-phenylbutyryl-L-prolyl-tert-butyl Amide]
HIV-1 protease [1]
  IC50: 300 µM

## COC[C@@H]1[C@@H](OC)[C@H](OC)[C@H](COC)N1C(=O)C(=O)C(Cc1ccccc1)NC(=O)OCc1ccccc1 (mixture of isomers) [Compound 12, (3S) and (3R) 3-(N-Benzyloxycarbonyl)amino-2-keto-4-phenylbutyryl-(2′(R), 5′(R)-bis(methoxymethyl]-3′(R), 4′(S)-dimethoxypyrrolidine]]
HIV-1 protease [1]
  IC50: 20 µM
  Ki: 20 µM

## COC(=O)[C@@H]1CCCN1C(=O)C(=O)C(Cc1ccccc1)NC(=O)OC(C)(C)C (stereo partly shown) [Compound 1]
HIV-1 protease [1]
  IC50: 6 µM
  Ki: 6 µM

## CSC[C@H](NC(=O)COc1cccc2cnccc12)C(=O)N[C@@H](Cc1ccccc1)[C@H](O)C(=O)N1CSC[C@H]1C(=O)NC(C)(C)C [KNI-272, reference compound]
HIV-1 protease [1]; compared with 2
  Ki against HIV PR relative to compound 2: almost five orders of magnitude lower

## COCC1C(OC)C(OC)C(COC)N1CC(O)C(Cc1ccccc1)NC(=O)OCc1ccccc1 [Compound 6, N-[1-Phenyl-2(S)-[(benzyloxycarbonyl)amino]-3(R)-hydroxybutan-4-[2′(R), 5′(R)-bis(methoxymethyl)-3′(R), 4′(S)-dimethoxy]-pyrrolidine]
HIV-1 protease [1]
  IC50: 100 µM

## COCC1CCC(COC)N1CC(O)C(Cc1ccccc1)NC(=O)OCc1ccccc1 [Compound 5, N-[1-Phenyl-2(S)-[(benzyloxycarbonyl)amino]-3(R)-hydroxybutan-4-[2′ (R), 5′ (R)-bis(methoxymethyl)]-pyrrolidine]
HIV-1 protease [1]
  IC50: 1800 µM

## CC(C)(C)NC(=O)[C@@H]1C[C@@H](OCc2ccccc2)CN1C[C@@H](O)[C@H](Cc1ccccc1)NC(=O)OCc1ccccc1 [Compound 11]
HIV-1 protease [1]
  IC50: 3.9 µM

## O=C1N(Cc2ccc(CO)cc2)[C@H](Cc2ccccc2)[C@H](O)[C@@H](O)[C@@H](Cc2ccccc2)N1Cc1ccc(CO)cc1 [DMP 323]
HIV-1 protease [3]
  IC50: 0.036 µM
  Ki: 0.00027 µM

## COC[C@H]1CCCN1C[C@@H](O)[C@H](Cc1ccccc1)NC(=O)OCc1ccccc1 [Compound 7]
HIV-1 protease [1]
  IC50: 1600 µM

## CO[C@H]1CC(C(=O)NC(C)(C)C)N(C[C@@H](O)[C@H](Cc2ccccc2)NC(=O)OCc2ccccc2)C1 (stereo partly drawn) [Compound 9, N-(1-Phenyl-2(S)-[(benzyloxycarbonyl)amino]-3(R)-hydroxybutan-4-(tert-butylamido)-4′(S)-methoxy]-pyrrolidine]
HIV-1 protease [1]
  IC50: 17 µM

## CC(C)(C)NC(=O)[C@@H]1CCCN1C[C@@H](O)[C@H](Cc1ccccc1)NC(=O)OCc1ccccc1 [Compound 8]
HIV-1 protease [1]
  IC50: 60 µM

## CC[C@H](C)[C@H](NC(=O)[C@@H]1CCCN1C(=O)C(=O)C(Cc1ccccc1)NC(=O)OCc1ccccc1)C(=O)N[C@@H](CCC(N)=O)C(=O)OC(C)(C)C (mixture of isomers) [Compound 4]
HIV-1 protease [1]
  Ki: 0.154 µM
FIV protease; read-out: FIV PR IC50
  IC50: 25 µM
FIV protease; read-out: FIV PR Ki
  Ki: 29 µM

## (2S, 3R) and (2S, 3S) 3-(N-Benzyloxycarbonyl)amino-2-hydroxy-4-phenylbutyryl-L-prolyl-tert-butyl Amide [Compound 24]
HIV-1 protease [1]
  IC50: 2 µM
